Source: patent publication US12448655B2, “Antibiotic susceptibility of microorganisms and related methods and systems” (CALIFORNIA INSTITUTE OF TECHNOLOGY, priority 2017, dated 2025)

Key:
Klebsiella pneumoniae = experiment: Minimum inhibitory concentrations (MICs) of Enterobacteriaceae clinical isolates; type: cell-based
Excerpt: (§1) Clinical isolates referenced, minimum inhibitory concentrations (MICs), and categorical susceptibility based on CLSI breakpoints The below list of organisms are examples of clinically-relevant susceptible and resistant Enterobacteriaceae clinical isolates. Minimum inhibitory concentrations (MICs) are provided in μg/mL for the antibiotics listed.
(§2) Isolates, growth conditions, and antibiotic exposure conditions. 25 de-identified clinical isolates were obtained from the UCLA Clinical Microbiology Laboratory (CML) and the CDC's Enterobacteriaceae Carbapenem Breakpoint panel. In the case of isolates obtained from the UCLA CML, MICs were determined as described previously. Genotypic testing of the two Ec and two Kp isolates selected for their lack of known β-lactamase genes was performed by UCLA CML using a previously published assay and separately at the Keck School of Medicine of USC using the FDA-approved Cepheid Xpert® Carba-R test. Whole genome sequencing of the single Ebs isolate selected for its lack of known resistance genes was performed by the CDC [3]. All isolates were stored as glycerol stocks at −80° C. Glycerol stocks were streaked onto Trypticase Soy Agar with 5% sheep's blood (Becton Dickinson, Franklin Lakes, NJ, USA) and grown overnight at 37° C. Prior to experiments, a small clump of cells was resuspended in 2 mL Brain Heart Infusion Broth (BHI, Becton Dickinson) at 37° C.+5% CO2 with 500 rpm shaking for 2 to 4 h until visibly turbid. OD600 of the cultures was then measured, and working cultures prepared at an OD600 of 0.01-0.07 and grown for 50-145 min at 37° C.+5% CO2 with 500 rpm. Working cultures were then diluted 10× into control and treated aliquots for antibiotic exposure. For validation experiments, antibiotic exposure was performed in 100 μL volumes consisting of 80 μL Mueller Hinton II Broth (Becton Dickinson), 5 μL nuclease-free H2O (NF—H2O), 5 μL 20× antibiotic stock solution, and 10 μL of working culture. In control aliquots, antibiotic stock solution was replaced with NF—H2O. For filtration experiments, antibiotic exposure was performed in 100 μL volumes consisting of 65 μL Mueller Hinton II Broth (Becton Dickinson), 21 μL nuclease-free H2O (NF—H2O), 4 μL 25× antibiotic stock solution, and 10 μL of working culture. In control aliquots, antibiotic stock solution was replaced with NF—H2O.

Escherichia coli = experiment: as above; type: cell-based
Excerpt: as §1, §2

Neisseria gonorrhoeae = experiment: Minimum inhibitory concentrations (MICs) of Neisseria gonorrhoeae clinical isolates; type: cell-based
Description: Isolates and agar-dilution MIC testing. Isolates were provided by the University of Washington Neisseria Reference Laboratory and the Centers for Disease Control (CDC) Antibiotic Resistance Isolate Bank Neisseria gonorrhoeae panel (SINuca-Table). MICs of the CDC AR Isolate Bank are reported by the CDC [10], and MIC of all other isolates were determined by agar dilution according to the Clinical and Laboratory Standards Institute (CLSI) guidelines.

E. coli isolates [1] = experiment: Quantification of DNA release following antibiotic exposure, filtration and ddPCR (Example 27); type: cell-based, Escherichia coli; parameters: dose or concentration left out as unconfirmed; conditions: 15 min exposure, 0.22 μm filtration, ddPCR
Description: Filtration experiments. Filtration experiments were performed using E. coli isolates exposed to 0.5 μg/mL ertapenem for 15 min. Immediately following exposure, cultures were passed through 0.22 μm, 1.5 mL cellulose acetate centrifuge tube filters (Corning Costar Spin-X, Corning, NY) by adding 50 μL of sample to the filter and centrifuging for 4 minutes at 1000 ref. DNA was extracted from both the feed and filtrate using QuickExtract DNA Extraction Solution (Lucigen, Middleton, WI, USA). Samples were diluted 10× into extraction buffer and extracted according to manufacturer instructions. The concentration of the single copy E. coli uidA gene was then quantified in the feed and filtrate extractions. The percentage of E. coli DNA in the filtrate was calculated as the filtrate concentration divided by the feed concentration. Droplet digital PCR (ddPCR) was performed using QX200 ddPCR Supermix for EvaGreen (BioRad). 10% of the final reaction volume was template. Published primers targeting the uidA gene in E. coli were used at a final concentration of 500 nM. Cycling conditions consisted of 5.0 min at 95° C., followed by 40 cycles of 95° C. for 30 sec, 60° C. for 30 sec, and 72° C. for 30 sec., with final dye stabilization steps of 4° C. for 5.0 min followed by 90° C. for 5.0 min.
To investigate the mechanism of pol-aAST, experiments were performed to separate free NAs from NAs contained within structurally intact cells or associated with cell debris. Susceptible and resistant clinical isolates were exposed to β-lactams for 15 min, then filtered through […] filters to remove cells from free NAs. NAs in the sample and eluate were then quantified using droplet digital PCR (ddPCR).

E. coli isolates [2] = experiment: pol-aAST, comparison of LAMP and qPCR amplification (Example 26); type: cell-based, Escherichia coli; conditions: 0.5 μg/mL ertapenem for 15 min
Description: Comparison of amplification methods. In order to compare amplification using LAMP and PCR, E. coli isolates were exposed to 0.5 μg/mL ertapenem for 15 min. Samples were then transferred directly into either PCR or LAMP mix on ice. Amplification was started immediately. Quantitative PCR (qPCR) was performed on a Roche LightCycler 96 using SsoFast EvaGreen Supermix (BioRad, Hercules, CA, USA). 10 μL reactions were used. 10% of the final reaction volume was template. Published primers were used at a final concentration of 500 nM. Cycling conditions consisted of 3.0 min at 95° C., followed by 35 cycles of 95° C. for 10 sec, 60° C. for 10 sec, and 72° C. for 15 sec. Fluorescence was measured using the SYBR Green channel after each 72° C. extension step. LAMP was performed on a BioRad CFX96 using the following conditions: 10 μL reaction volume containing 1× Isothermal Reaction Buffer II (NEB), 5 mM MgSO4 (NEB), 1.4 mM dNTPs (NEB), 320 U/mL Bst 3.0 (NEB), and 2 μM Syto-9 (Thermo Fisher). 10% of the reaction volume was template. Primer sequences and concentrations have been described previously. Cycling conditions consisted of 2.0 min at 12° C. (while lid was heating), followed by 120 cycles of 70° C. for 10 sec. Fluorescence was measured using the SYBR Green channel every 10 sec (after each cycle).
To test this, pol-aAST is performed in this example using LAMP, and quantitative PCR (qPCR) (FIG. 48). […]

Ng isolates = experiment: Percentage of cell lysis due to enhancer alone (Example 33); type: cell-based, Neisseria gonorrhoeae; conditions: Ng clinical isolates (12 for BAC); no antibiotic
Description: Enhancer use. Working cultures of Ng isolates were prepared as described in “Ng culture preparation.” Initial exposure was performed by incubating 100 μL control and treated samples at 37° C. in PCR tube strips on a BioRad C1000 Thermal Cycler. Treated samples consisted of 75 μL MHB, 5 μL NaHCO3 (100 mM), 5 μL DNase I (2 U/μL), 5 μL PEN or CRO (20 μg/mL), and […] working Ng isolate culture. ABX were replaced with NF—H2O in control samples. After 15 min of incubation, samples were vortexed and quick-spun, and aliquots of all samples were transferred to the enhancement step as described below. After the enhancement step, 5 or 10 μL of all samples were extracted by diluting 10× in QuickExtract DNA Extraction Solution (Lucigen) and heating for 6 min at 65° C. followed by 4 min at 98° C. on a BioRad C1000 Thermal Cycler. All sample handling following ABX exposure was performed using a multichannel pipette; qPCR and calculation of % accessibility was performed as described above.
Osmotic and autolytic enhancing steps were performed in 100 μL volumes. The osmotic enhancing step consisted of 89.75 μL NF—H2O, 4.75 μL DNase I (2 U/μL), 0.5 μL CaCl (100 mM, 0.2-μM filtered), and 5 μL initial exposure samples. […]

## CC1(C)S[C@@H]2[C@H](NC(=O)[C@H](N)c3ccccc3)C(=O)N2[C@H]1C(=O)O [AMP, ampicillin]
Klebsiella pneumoniae; isolate Kp_7
  Antibiotic MICs: >32 µg/mL
Klebsiella pneumoniae; isolate Kp_8
  Antibiotic MICs: >32 µg/mL
Escherichia coli; isolate Ec_1
  Antibiotic MICs: 4 µg/mL
Escherichia coli; isolate Ec_2
  Antibiotic MICs: <=2 μg/mL
Escherichia coli; isolate Ec_3
  Antibiotic MICs: <=2 μg/mL
Escherichia coli; isolate Ec_4
  Antibiotic MICs: <=2 μg/mL
Escherichia coli; isolate Ec_39
  Antibiotic MICs: >=32 μg/mL
Escherichia coli; isolate Ec_40
  Antibiotic MICs: >=32 μg/mL

## C=CC1=C(C(=O)O)N2C(=O)[C@@H](NC(=O)/C(=N\OCC(=O)O)c3csc(N)n3)[C@H]2SC1 [CFM, cefixime]
Neisseria gonorrhoeae; isolate ng_1
  Antibiotic MICs: ≤0.015 µg/mL
Neisseria gonorrhoeae; isolate ng_2
  Antibiotic MICs: ≤0.015 µg/mL
Neisseria gonorrhoeae; isolate ng_3
  Antibiotic MICs: ≤0.015 µg/mL
Neisseria gonorrhoeae; isolate ng_4
  Antibiotic MICs: 0.060 µg/mL
Neisseria gonorrhoeae; isolate ng_5
  Antibiotic MICs: 0.030 µg/mL
Neisseria gonorrhoeae; isolate ng_6
  Antibiotic MICs: 0.015 µg/mL
Neisseria gonorrhoeae; isolate ng_12
  Antibiotic MICs: 0.030 µg/mL
Neisseria gonorrhoeae; isolate ng_15
  Antibiotic MICs: ≤0.015 µg/mL
Neisseria gonorrhoeae; isolate ng_16
  Antibiotic MICs: ≤0.015 µg/mL
Neisseria gonorrhoeae; isolate ng_17
  Antibiotic MICs: ≤0.015 µg/mL
Neisseria gonorrhoeae; isolate ng_18
  Antibiotic MICs: 0.060 µg/mL
Neisseria gonorrhoeae; isolate ng_19
  Antibiotic MICs: 0.030 µg/mL
Neisseria gonorrhoeae; isolate ng_20
  Antibiotic MICs: ≤0.015 µg/mL
Neisseria gonorrhoeae; isolate ng_30
  Antibiotic MICs: 1.000 µg/mL
Neisseria gonorrhoeae; isolate ng_41
  Antibiotic MICs: 0.250 µg/mL
Neisseria gonorrhoeae; isolate ng_44
  Antibiotic MICs: ≤0.015 µg/mL

## C[C@@H](O)[C@H]1C(=O)N2C(C(=O)O)=C(S[C@@H]3CN[C@H](C(=O)Nc4cccc(C(=O)O)c4)C3)[C@H](C)[C@H]12 [ETP, ertapenem]
E. coli isolates [1]
  average percentage of DNA released from susceptible isolates: 15%
E. coli isolates [2]; susceptible E. coli isolate
  time-to-positive difference (TTPD) between control and treated aliquots, LAMP: 1.02 min
E. coli isolates [2]; two susceptible and two resistant E. coli isolates
  difference in Cq between control and treated samples, qPCR: none of which showed a statistically significant difference in Cq
Klebsiella pneumoniae; isolate Kp_1
  Antibiotic MICs: <=.5 μg/mL
Klebsiella pneumoniae; isolate Kp_2
  Antibiotic MICs: <=.5 μg/mL
Klebsiella pneumoniae; isolate Kp_7
  Antibiotic MICs: >8 µg/mL
Klebsiella pneumoniae; isolate Kp_8
  Antibiotic MICs: >8 µg/mL
Escherichia coli; isolate Ec_1
  Antibiotic MICs: <=.5 μg/mL
Escherichia coli; isolate Ec_2
  Antibiotic MICs: <=.5 μg/mL
Escherichia coli; isolate Ec_3
  Antibiotic MICs: <=.5 μg/mL
Escherichia coli; isolate Ec_4
  Antibiotic MICs: <=.5 μg/mL
Escherichia coli; isolate Ec_38
  Antibiotic MICs: >4 µg/mL
Escherichia coli; isolate Ec_39
  Antibiotic MICs: 2 µg/mL
Escherichia coli; isolate Ec_40
  Antibiotic MICs: 2 µg/mL
Escherichia coli; isolate Ec_41
  Antibiotic MICs: 2 µg/mL

## C[C@@H](O)[C@H]1C(=O)N2C(C(=O)O)=C(S[C@@H]3CN[C@H](C(=O)N(C)C)C3)[C@H](C)[C@H]12 [meropenem]
E. coli isolates [1]
  average percentage of DNA released from susceptible isolates: 21%

## benzalkonium chloride [BAC]
Ng isolates
  average percentage lysis by 5-min incubation with the enhancer alone: 91.6%
